Laboratory results from patent US8268278B2, “Phosphorus-calcium-strontium compound and uses thereof in endodontic cements” (Centre National de la Recherche Scientifique, priority 2006, dated 2012).

Tested on: polymicrobial inoculum taken from dental plaque
Assay: Inhibition of growth of a polymicrobial inoculum, diffusion in solid agar medium
Type: cell-based
Conditions: freshly prepared samples
Source text: The activity of these two cements was verified on freshly prepared samples of cement and samples prepared 13 days previously.

Q: `[Ca+2].[OH-].[OH-]` [Ca(OH)2, calcium hydroxide] was tested. Which “RIZ (relative inhibition zone, compared with freshly prepared pure calcium hydroxide)” value did it give?
A: 1
